The term IC50 denotes the concentration needed to halve the response being measured.

This note sets out measurements from patent US20230192720A1, “MACROCYCLIC COMPOUNDS” (ZENO MANAGEMENT, INC., priority 2019, published 2023).

Structures are written as SMILES.

The test system of one experiment is NCI-H929 cells. The experiment in a line: NCI-H929 cell proliferation assay (CellTiter-Glo). Format: cell-based. The note with it: 72 h compound treatment. Here is the method:
NCI-H929 Cell Proliferation Assay
Cell proliferation was measured using the CellTiter-Glo® Luminescent Cell Viability Assay. The assay involved the addition of a single reagent (CellTiter-Glo® Reagent) directly to cells cultured in serum-supplemented medium. NCI-H929 (ATCC CRL-9068) cells were cultured according to ATCC recommendations and were seeded at 3,000 cells per well.
Each compound evaluated was prepared as a DMSO stock solution (10 mM). Compounds were tested in duplicate on each plate, with a 10-point serial dilution curve (1:3 dilution). Compound treatment ([…]) was added from the compound dilution plate to the cell plate. The highest compound concentration was 10 μM (final), with a 0.1% final DMSO concentration. Plates were then incubated at 37° C., 5% CO2. After 72 h of compound treatment, cell plates were equilibrated at rt for approximately 30 mins. An equi-volume amount of CellTiter-Glo® Reagent (40 μL) was added to each well. Plates were mixed for 2 mins on an orbital shaker to induce cell lysis and then incubated at rt for 10 mins to stabilize the luminescent signal. Luminescence was recorded using an Envision plate reader according to CellTiter-Glo protocol. IC50 of each compound was calculated using GraphPad Prism by nonlinear regression analysis.
For orientation: Cellular ATP, detected with luciferase, serves as a proxy for viable cell number.
`CN1Cc2cc(n(C)n2)CCc2cc3c(c(c2)OCCCc2c(C(=O)O)n(C)c4c(c(Cl)ccc24)-c2c(nn4c2CCCC4)C1)NCCC3` (atropisomer, axis not shown; (Sa)) [Example 6B, (Sa)-(−)-(Z)-1^6-Chloro-1^1,6^1,4-trimethyl-2^4,2^5,2^6,2^7,9^1,9^2,9^3,9^4-octahydro-1^1H,6^1H-10-oxa-4-aza-9(6,8)-quinolina-2(3,2)-pyrazolo[1,5-a]pyridina-1(7,3)-indola-6(3,5)-pyrazolacyclotridecaphane-1^2-carboxylic acid] showed a concentration for half-maximal inhibition (IC50) of at least 1000 nM.

`Cn1nc2cc1CSc1cc3c(c(c1)OCCCc1c(C(=O)O)n(C)c4c(c(F)ccc14)-c1c(nn4c1CCCC4)CSC2)NCCC3` (atropisomer, axis not shown; (Sa)) [Example 8B, (Sa)-(−)-(Z)-1^6-Fluoro-1^1,6^1-dimethyl-2^4,2^5,2^6,2^7,9^1,9^2,9^3,9^4-octahydro-1^1H,6^1H-10-oxa-4,8-dithia-9(6, 8)-quinolina-2(3,2)-pyrazolo[1,5-a]pyridina-1(7,3)-indola-6(3,5)-pyrazolacyclotridecaphane-1^2-carboxylic acid]: the half-inhibitory concentration (IC50) was 100 to 1000 nM.

`Cn1nc2cc1CSc1cc3c(c(c1)OCCCc1c(C(=O)O)n(C)c4c(c(Cl)ccc14)-c1c(nn4c1CCCC4)CNC2)NCCC3` (atropisomer, axis not shown; (Ra)) [Example 12A, (Ra)-(+)-(Z)-1^6-Chloro-1^1,6^1-dimethyl-2^4,2^5,2^6,2^7,9^1,9^2,9^3,9^4-octahydro-1^1H,6^1H-10-oxa-8-thia-4-aza-9(6,8)-quinolina-2(3,2)-pyrazolo[1,5-a]pyridina-1(7,3)-indola-6(3,5)-pyrazolacyclotridecaphane-1^2-carboxylic acid]: the IC50 was at least 1000 nM.

`CN1Cc2cc(n(C)n2)CSc2cc3c(c(c2)OCCCc2c(C(=O)O)n(C)c4c(c(Cl)ccc24)-c2c(nn4c2CCCC4)C1)NCCC3` (atropisomer, axis not shown; (Ra)) [Example 4A, (Ra)-(+)-(Z)-1^6-Chloro-1^1,6^1,4-trimethyl-2^4,2^5,2^6,2^7,9^1,9^2,9^3,9^4-octahydro-1^1H,6^1H-10-oxa-8-thia-4-aza-9(6,8)-quinolina-2(3,2)-pyrazolo[1,5-a]pyridina-1(7,3)-indola-6(3,5)-pyrazolacyclotridecaphane-1^2-carboxylic acid] had a concentration for half-maximal inhibition (IC50) of at least 1000 nM.

As to `Cc1nn(C23CC(C2)C3)c2c1-c1c(F)ccc3c(c(C(=O)O)n(C)c13)CCCOc1cc(cc3c1NCCC3)SCc1cc(nn1C)CSC2` (atropisomer, axis not shown; (Ra)) [Example 10A, (Ra)-(+)-(Z)-2^1-(Bicyclo[1.1.1]pentan-1-yl)-1^6-fluoro-1^1,2^3,6^1-trimethyl-9^1,9^2,9^3,9^4-tetrahydro-1^1H,2^1H,6^1H-10-oxa-4,8-dithia-9(6,8)-quinolina-1(7,3)-indola-2(4,5),6(3,5)-dipyrazolacyclotridecaphane-1^2-carboxylic acid], the IC50 was at least 1000 nM.

Still in this experiment, the particulars now being: Homo sapiens, NCI-H929, 72 h, 72 h compound treatment.
With `Cn1nc2cc1CSc1cc3c(c(c1)OCCCc1c(C(=O)O)n(C)c4c(c(Cl)ccc14)-c1c(nn4c1CCC4)CSC2)NCCC3` (atropisomer, axis not shown; (Sa)) [Example 1B, (Sa)-(−)-(Z)-1^6-Chloro-1^1,6^1-dimethyl-2^5,2^6,9^1,9^2,9^3,9^4-hexahydro-1^1H,2^4H,6^1H-10-oxa-4,8-dithia-9(6,8)-quinolina-1(7,3)-indola-2(3 ,2)-pyrrolo[1,2-b]pyrazola-6(3,5)-pyrazolacyclotridecaphane-1^2-carboxylic acid], the IC50 was at least 1000 nM.

`Cc1c2c(nn1C)CSCc1cc(n(C)n1)CSc1cc(c3ccccc3c1)OCCCc1c(C(=O)O)n(C)c3c-2c(Cl)ccc13` [AZD5991, reference compound] returned an IC50 of at most 100 nM.
